The values that follow are results of earlier work, collected in PMC8472685, “Nanocrystalline Suspensions of Irbesartan Enhance Oral Bioavailability by Improving Drug Solubility and Leading Endocytosis Uptake into the Intestine” (Pharmaceutics, 2021).

For data set [1] the following is noted: for Aqueous solubility of crystalline form: forms A and B.
Details of data set [2]: method as in PMID 9438775.
The next data set has as its system patients. Also on record: method as in PMID 9438776. The conditions noted are these: 300 mg dose.

Regarding `CCCCC1=NC2(CCCC2)C(=O)N1Cc1ccc(-c2ccccc2-c2nnn[nH]2)cc1` [irbesartan], the BCS class entry in data set [1] (low aqueous solubility and high permeability) is on record as “BCS class II”. Also, the “Time of Cmax after oral administration” value in data set [2] was 1.5 to 2 h. Further, the “Oral bioavailability (BA)” value in data set [2] (in patients) is 60–80%. Further, in the data set on patients, the “Decrease in BP from baseline” value is reported as 10 mmHg and the “Higher BP in treated compared to nontreated patients (so in the source)” value is listed as “approximately 70%”.

As to `CCCCC1=NC2(CCCC2)C(=O)N1Cc1ccc(-c2ccccc2-c2nnn[nH]2)cc1` [form B, irbesartan], the “Aqueous solubility of crystalline form” value in data set [1] is 0.6 µg/mL.

For `CCCCC1=NC2(CCCC2)C(=O)N1Cc1ccc(-c2ccccc2-c2nnn[nH]2)cc1` [form A, irbesartan], in data set [1], the “Aqueous solubility of crystalline form” value was 11 µg/mL.
